Source: patent US10221227B2, “Peptide for promoting osteogenic differentiation or vascularization and use thereof” (INDUSTRY FOUNDATION OF CHONNAM NATIONAL UNIVERSITY, priority 2015, dated 2019)
Ends that are not written are not given here.

Legend:
mesenchymal stem cells = experiment: Measurement of mineralization by Alizarin Red staining; format: cell-based, Balb/c mouse; details: cells added with 1 μg/μL of BFP 5; tested at 0.01, 0.1, 1 and 10 μg/μL, osteogenic differentiation medium, two additional days
Protocol: Mesenchymal stem cells (1×10^4), which were cloned from Balb/c mouse bone marrow stromal cells) were aliquoted into 10% FBS-containing DMEM and cultured in an atmosphere (about 37° C., 5% CO2) for 3 days, and thereby the mesenchymal stem cells to be used as osteoblasts in the present experiment were prepared. Osteogenic differentiation medium (hereinafter, “ODM”) consists of DMEM which contains 50 μg/mL of ascorbic acid, 10^−8 M dexamethasone, 10 mM β-glycerophosphate, etc.
The differentiation of the mesenchymal stem cells into osteoblasts causes calcium accumulation. Here, the degree of calcium accumulation refers to the degree of differentiation of osteoblasts, and the degree of accumulation of calcium ions can be confirmed by observing the degree of staining of the cells that are stained red, via Alizarin Red staining. In this regard, the mineralization was measured via Alizarin Red staining. That is, as the differentiation into osteoblasts are promoted there are more regions that can be stained by Alizarin Red. Accordingly, the degree of osteogenic differentiation can be confirmed by adding Alizarin Red to the osteogenic differentiation medium, treating with the peptide of SEQ ID NO: 1 (BFP 5), and observing the degree of Alizarin Red staining. […]

[1] = test system: Runx2, alkaline phosphatase, Osteopontin, collagen type 1, DLX5, and Osterix; experiment: Expression of osteoblast-specific genes under a fluorescent microscope using antibodies (FIG. 5); format: cell-based; details: cells treated with BFP 5, fluorescent microscope using antibodies
From the text: An osteoblast-specific protein is expressed upon differentiation into osteoblasts. When the antibody to the protein was reacted to cells and the degree of binding was confirmed by a fluorescent microscope.

[2] = test system: alkaline phosphatase and Osterix; experiment: Level of proteins expressed in osteoblasts (FIG. 6); format: cell-based; details: FIG. 6, protein level
Osterix = Osterix expression at varied concentrations of BFP 5 (FIG. 8); format: cell-based
VEGF = experiment: Effect on vascularization: expression of VEGF (FIG. 9); format: cell-based; details: cells treated with BFP 5; alongside VEGF, FGF, SDF-1a, SDF-1g
alkaline phosphatase = details: at 1 μg/μL of BFP 5; RT-PCR / enzyme activity kit

PPRACPTARALCEIR (cysteine pairing not given here) [SDF-1d-derived peptide consisting of 15 amino acids, named bone forming peptide 5]
strongest staining: Alizarin Red staining (mineralization accumulated via osteogenic differentiation) (mesenchymal stem cells)
0.1 µg/mL: concentration of BFP 5 at which expression (Osterix) is at the highest level (Osterix)
strong expression: expression of VEGF, a protein associated with vascularization (VEGF) | expression of alkaline phosphatase (alkaline phosphatase)
strongly expressed: expression of DLX5 [1] | expression of Osteopontin [1] | expression of Osterix [1] | expression of Runx2 [1] | expression of alkaline phosphatase [1] | expression of collagen type 1 [1] | Osterix protein expressed in osteoblasts [2] | alkaline phosphatase protein expressed in osteoblasts [2]
